For series [1], the target named is HPK full length, T165E S171E (Homo sapiens (Human), UniProt Q92918, S171E/T165E). The series can be described thus: HPK1-FL HTRF enzymatic assay ("HTRF"). It counts as biochemical. The conditions noted are these: ATP 1 mM. In outline:
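HTRF detection of phosphorylated biotin-SLP-76 used Eu-anti-pSLP76 antibody and SA-XL665, read after 60 min. The kinase reaction ran 60 min at […], following a 30-min compound preincubation with the full-length enzyme.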
Background: In TR-FRET formats the signal depends on donor and acceptor labels being close together.

In series [2] the test system is phosphorylation of SLP-76 (S376) by HPK-1 in human Jurkat cells. The series can be described thus: pSLP76 assay (sandwich ELISA, anti-CD3 stimulated Jurkat cells). It is filed as cell-based. The conditions noted are these: Homo sapiens, read-out: pSLP76 IC50. As to the method: Phospho-SLP76 (S376) is detected by sandwich ELISA using an anti-pSLP76(S376) capture antibody and a biotinylated anti-SLP76 detection antibody.
Incubate Jurkat cells with varying concentrations of test compounds for 30 minutes in a humidified incubator at 37° C. and 5% CO2. Add anti-CD3 DynaBeads at a 4:1 bead:cell ratio. Stimulate cells in a humidified incubator at 37° C. and 5% CO2 for 10 minutes. Add cold lysis buffer and incubate on a shaker at 4° C. for 30 minutes. Transfer cell lysates to a pre-blocked ELISA plate coated with capture antibody. Incubate at room temperature shaking for 2 hours. Wash ELISA plate 5× with wash buffer and add 25 μl of biotinylated detection antibody at a final concentration of 0.5 μg/ml. Incubate at room temperature shaking for 1 hour. Wash ELISA plate 5× with wash buffer and add 25 μl of streptavidin enzyme conjugate at a final dilution of 1:8000. Incubate at room temperature shaking for 20 minutes. Wash ELISA plate 5× with wash buffer and add 25 μl of TMB substrate solution. Incubate at room temperature in the dark shaking for 20 minutes. Add 25 μl of STOP solution and read on SoftMax Pro for absorbance at 450 nm.
Exemplary compounds of Formula (I) were tested in pSLP76 assays.
Background: ELISA stands for enzyme-linked immunosorbent assay.

Series [3] can be described thus: Hepatocyte stability assay. It is filed as in vitro ADME. The conditions noted are these: cryopreserved human hepatocytes (10 donor pool, suspension), scaled hepatic clearance, read-out: HHep Clearance. As to the method:
Metabolic stability of compounds are assessed using a hepatocyte stability assay. Cryopreserved human hepatocytes from a 10 donor pool are quickly thawed at 37° C., suspended in prewarmed In VitroGRO™ HT Medium, and then centrifuged at 100×g at room temperature for 10 min. The supernatants are discarded, and cells are resuspended in 5 mL Dulbecco's Modified Eagle Medium (DMEM) medium. Cell viability in suspension is counted on a Hepatometer® Vision (Lonza, N.C.), and viable cells are then adjusted to […] in DMEM. Compounds are first diluted to 2 μM with DMEM medium, and then aliquots of 125 μL of drug-containing medium are transferred to 96-well non-coated plates. Incubation is initiated by the addition of 125 μL of hepatocyte suspension to yield a total incubation volume of 250 μL. Final concentration of each compound is 1 μM, and final cell density is 0.5×10^6 cells/mL. Incubations are conducted in a humidified incubator at 37° C. Aliquots of 50 μL incubation medium are taken out at different time intervals (0, 60, 120 and 180 min), and immediately mixed with 100 μL of ice-cold acetonitrile containing 50 nM propranolol (internal standard). Samples are then centrifuged at 10,000×g for 10 min, and 80 μL of supernatant is taken out and diluted with 160 μL of water prior to LC/MS-MS analysis.
Human hepatocyte stability was assessed for exemplary compounds of Formula (I) according to the above procedures.

Series [4] has as its system primary human pan T cells. Put plainly: Human T-cell IL2 induction assay. It is filed as cell-based. As to the method: Assay Principle: Anti-CD3 and anti-CD28 activates TCR signaling in primary human pan T cells leading to IL-2 promoter induction. Secreted IL-2 in cell culture supernatant is detected by electrochemiluminescence using a capture antibody against IL-2 and an anti-IL-2 antibody labeled with SULFO-tag. Also see www.mesoscale.com for additional electrochemiluminescence technology information.
Assay Procedure: Incubate primary human pan T cells with varying concentrations of test compounds for 30 minutes in a humidified incubator at 37° C. and 5% CO2. Transfer cells to a plate pre-coated with a fixed concentration of anti-human CD3 (determined separately for each donor lot) and add soluble anti-human CD28 (final concentration=1 μg/ml). Stimulate cells in a humidified incubator at 37° C. and 5% CO2 for 4 hours. Transfer 25 μl of supernatant to a MSD single spot plate pre-coated with an anti-human IL-2 antibody. Incubate MSD plate overnight at 4° C. with gentle shaking. Wash MSD plate 4× with wash buffer. Add SULFO-tagged detection antibody at a 1:50 dilution and incubate at room temperature shaking for 2 hours. Wash MSD plate 4× with wash buffer and add 150 μl 2×MSD read buffer. Read on an MSD instrument. Normalize data to stimulated/untreated controls to calculate % activity at each concentration of compound.
Instrumentation: • Biomek FX for liquid handling (Beckman Coulter) • MSD SECTOR S 600 (Meso Scale Discovery)
Exemplary compounds of Formula (I) were tested in the human T-cell IL-2 induction assays.

Series [5] in a line: Pharmacokinetic study in rat. It counts as in vivo, Sprague Dawley rat. The conditions noted are these: male, Sprague Dawley. As for the experimental part: Pharmacokinetic Study in Rat: Male Sprague Dawley rats obtained from Lingchang/Vital River Laboratory Animal Technology Co., Ltd., (Shanghai/Beijing, P.R. China) with body weight ranging between 200 g to 300 g were use in the PK studies. Group of 3 rats were given a 1 mg/kg intravenous bolus (IV) dose of the test article in solution formulation, and another group of 3 rats were given a 2 or 5 mg/kg oral (PO) dose of test article as a 0.5% methylcellulose with 0.2% Tween 80 (MCT) suspension or as a solution. Blood samples (250 μL, per time point) were collected serially via the catheter in femoral artery at 0.033, 0.083, 0.25, 0.5, 1, 2, 4, 6, and 8 hours after IV or PO administration from each of the rat. Blood samples were collected into pre-chilled tubes containing Potassium (K2) EDTA and centrifuged at 3,200 g for 10 minutes at 2 to 8° C. within 1 hour of collection to harvest plasma. Plasma samples were stored at −70° C. until LC/MS/MS analysis. Concentration in each plasma sample was determined by a non-validated LC/MS/MS. Data is acquired using multiple reaction monitoring (MRM) with specific transitions monitored for each compound.
Following PO administration, percent bioavailability (% F) was determined for each animal by dividing the dose normalized area under the plasma concentration-time curve, extrapolated to infinity (AUCinf) obtained following each PO dose by the mean dose normalized AUCinf of the animals dosed by IV injection. All PK parameters are presented as mean±standard deviation (SD).
Pharmacokinetic studies were conducted in rat for exemplary compounds of Formula (I).

Series [6] in a line: Permeability assay in gMDCKI cells. The conditions noted are these: dog, MDCK, apical-to-basolateral, 2-hour incubation, read-out: MDCK AB Papp. It is filed as in vitro ADME, canine. As for the experimental part: Cell permeability of compounds of interest was assessed in the gMDCKI cell line, which is a modified MDCKI (Madin-Darby canine kidney) originally acquired from American Type Culture Collection (Manassa, Va.) and generated at Genentech. […] Test article was tested at 10 μM in the apical-to-basolateral (A-B) and basolateral-to-apical (B-A) directions. Test compound was dissolved in transport buffer consisting of Hank's balanced salt solution and […] (Invitrogen Corporation, Grand Island, N.Y.). Transepithelial electrical resistance (TEER) and lucifer yellow (LY) permeability were used to monitor monolayer integrity at the beginning and the end of the experiments, respectively. Test articles were analyzed by LC-MS/MS.
The efflux ratio (ER) is calculated as (Papp, B−A/Papp, A−B).
Cell permeability were assessed for exemplary compounds of Formula (I).

Setting [7] is: Jurkat cells, anti-CD3 stimulation.
Where [8] appears, read: plasma, PO 2 mg/kg, 10% DMSO/60% PEG400/30% Water, Solution.

Here are results for eight compounds from patent US11612606B2, “8-aminoisoquinoline compounds and uses thereof” (priority 2018, dated 2023).

Like-named read-outs stand apart in the source and are kept apart here.

Sequence of HPK full length, T165E S171E (Q92918 whole entry T165E/S171E, looked up): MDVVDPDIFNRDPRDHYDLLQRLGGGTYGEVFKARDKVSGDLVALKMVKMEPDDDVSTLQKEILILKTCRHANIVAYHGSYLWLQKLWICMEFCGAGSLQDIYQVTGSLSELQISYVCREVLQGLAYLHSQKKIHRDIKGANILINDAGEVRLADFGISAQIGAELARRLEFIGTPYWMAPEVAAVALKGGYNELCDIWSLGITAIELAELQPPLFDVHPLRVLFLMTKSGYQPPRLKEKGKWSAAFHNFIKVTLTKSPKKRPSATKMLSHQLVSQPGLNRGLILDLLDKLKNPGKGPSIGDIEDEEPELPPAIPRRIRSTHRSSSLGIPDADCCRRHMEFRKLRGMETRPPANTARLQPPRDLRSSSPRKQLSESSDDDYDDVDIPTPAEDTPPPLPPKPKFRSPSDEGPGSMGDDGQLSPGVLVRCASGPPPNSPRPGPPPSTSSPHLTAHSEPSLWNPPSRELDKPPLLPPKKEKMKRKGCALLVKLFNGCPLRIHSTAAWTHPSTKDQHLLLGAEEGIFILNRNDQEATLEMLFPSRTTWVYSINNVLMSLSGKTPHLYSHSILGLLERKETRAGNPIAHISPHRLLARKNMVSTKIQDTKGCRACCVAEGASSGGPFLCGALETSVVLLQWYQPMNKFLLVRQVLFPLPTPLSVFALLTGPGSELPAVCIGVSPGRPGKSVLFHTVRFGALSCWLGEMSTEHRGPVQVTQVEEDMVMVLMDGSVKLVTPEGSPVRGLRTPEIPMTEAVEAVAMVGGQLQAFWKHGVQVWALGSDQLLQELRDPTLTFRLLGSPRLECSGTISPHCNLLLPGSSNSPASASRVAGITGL

For the compound `CCc1c(-c2cc3cc(NC(=O)O[C@@H]4COC[C@H]4C)ncc3c(N)c2F)cnc2c1NCCO2.Cl` (single isomer, unassigned) [Compound 555b, hydrochloride], the Ki in series [1] (read-out: HPK1 Ki) is < 0.013 nM. Also, the IC50 in series [2] (setting [7]) turned out to be 24 nM. Further, in series [3], the CLhep predicted at 1 μM is 13 mL/min/kg.
In the case of `Cc1c(-c2cc3cc(NC(=O)N4CC(C)(F)C4)ncc3c(N)c2F)cnc2c1NCCO2` [Compound 755, N-(8-Amino-7-fluoro-6-(8-methyl-2,3-dihydro-1H-pyrido[2,3-b][1,4]oxazin-7-yl)isoquinolin-3-yl)-3-fluoro-3-methylazetidine-1-carboxamide], in series [1] (read-out: HPK1 Ki), the Ki stood at 0.09 nM. The “% IL-2 increase relative to untreated cells” value in series [4] (assayed concentration 2.778 μM) came out at 1061%. The concentration for half-maximal inhibition (IC50) in series [2] (setting [7]) was 46 nM. The same compound displayed a bioavailability in series [5] (plasma, PO 5 mg/kg, 10% DMSO/60% PEG400/30% Water, Solution) of 4%. Also, the CLhep predicted at 1 μM in series [3] was 6.8 mL/min/kg. Besides, the apparent permeability (Papp) at 2 h, 10 μM in series [6] was 10 ×10⁻⁶ cm/s.
As to `Cc1c(-c2cc3cc(NC(=O)N4CC(C)C4)ncc3c(N)c2F)cnc2c1NCCO2` [Compound 751, N-(8-Amino-7-fluoro-6-(8-methyl-2,3-dihydro-1H-pyrido[2,3-b][1,4]oxazin-7-yl)isoquinolin-3-yl)-3-methylazetidine-1-carboxamide], in series [1] (read-out: HPK1 Ki), the Ki worked out at 0.044 nM. The “% IL-2 increase relative to untreated cells” value in series [4] (assayed concentration 2.778 μM) turned out to be 1363%. Also, the IC50 in series [2] (setting [7]) was 41 nM. Further, the bioavailability in series [5] (setting [8]) came to 9.4%. Further, the CLhep predicted at 1 μM in series [3] is < 6.2 mL/min/kg. For the same compound, the Papp at 2 h, 10 μM in series [6] worked out at 11 ×10⁻⁶ cm/s.
`Cc1c(-c2cc3cc(NC(=O)O[C@@H]4COC[C@@H]4F)ncc3c(N)c2F)cnc2c1NCCO2` (single isomer, unassigned) [Compound 477d] gave an inhibitory constant (Ki) in series [1] (HPK1 Ki) of 0.02 nM. Besides, the “% IL-2 increase relative to untreated cells” value in series [4] (assayed concentration 8.33 μM) stood at 1745%. Also, the IC50 in series [2] (setting [7]) turned out to be 66 nM. The compound further returned a bioavailability in series [5] (setting [8]) of 43%. Further, the CLhep predicted at 1 μM in series [3] is 5.7 mL/min/kg. The apparent permeability (Papp) at 2 h, 10 μM in series [6] was found to be 16 ×10⁻⁶ cm/s.
`CCc1c(-c2cc3cc(NC(=O)O[C@@H]4COC[C@H]4C)ncc3c(N)c2F)cnc2c1NCCO2.Cl` (single isomer, unassigned) [Compound 555b, (3S,4R)-4-Methyltetrahydrofuran-3-yl (8-amino-6-(8-ethyl-2,3-dihydro-1H-pyrido[2,3-b][1,4]oxazin-7-yl)-7-fluoroisoquinolin-3-yl)carbamate hydrochloride] gave a bioavailability in series [5] (in vivo, PO 2 mg/kg, 10% DMSO/60% PEG400/30% Water, Solution) of 34%. The Papp at 2 h, 10 μM in series [6] was 15 ×10⁻⁶ cm/s.
Turning to `CNc1cncc(-c2cc3cc(NC(=O)OC4CC(C)(O)C4)ncc3c(N)c2F)c1C` (centres unmarked) [Compound 527, 3-Hydroxy-3-methylcyclobutyl(8-amino-7-fluoro-6-(4-methyl-5-(methylamino)pyridin-3-yl)isoquinolin-3-yl)carbamate], in series [4] (assayed concentration 2.778 μM), the “% IL-2 increase relative to untreated cells” value stood at 738%. The half-maximal inhibitory concentration (IC50) in series [2] (Jurkat) is 64 nM. The compound also displayed a bioavailability in series [5] (plasma, PO 2 mg/kg, MCT, Suspension) of 12%. Besides, the CLhep predicted at 1 μM in series [3] was 11 mL/min/kg. Also, in series [6], the apparent permeability coefficient (Papp) at 2 h, 10 μM is 13 ×10⁻⁶ cm/s.
Take `Cc1c(-c2cc3cc(NC(=O)OC4CCOCC4)ncc3c(N)c2F)cnc2c1NCCO2` [Compound 401, Tetrahydropyran-4-yl N-[8-amino-7-fluoro-6-(8-methyl-2,3-dihydro-1H-pyrido[2,3-b][1,4]oxazin-7-yl)-3-isoquinolyl]carbamate]: in series [1] (read-out: HPK1 Ki), the Ki is 0.019 nM. Also, in series [2] (Jurkat), the IC50 worked out at 97 nM. Moreover, the bioavailability in series [5] (plasma, PO 5 mg/kg, MCT, Suspension) was determined as 16%. Further, the CLhep predicted at 1 μM in series [3] is 9.2 mL/min/kg. Besides, the Papp at 2 h, 10 μM in series [6] was 18 ×10⁻⁶ cm/s.
On to `Cc1c(-c2cc3cc(NC(=O)O[C@@H]4CCOC4)ncc3c(N)c2F)cnc2c1NCCO2` [Compound 403a, (R)-Tetrahydrofuran-3-yl (8-amino-7-fluoro-6-(8-methyl-2,3-dihydro-1H-pyrido[2,3-b][1,4]oxazin-7-yl)isoquinolin-3-yl)carbamate], for which the Ki in series [1] (HPK1 Ki) is < 0.013 nM. Further, in series [2] (setting [7]), the IC50 was determined as 48 nM. In series [5] (plasma, PO 5 mg/kg, 10/90 DMSO/MCT, Suspension), this compound showed a bioavailability of 4%. Moreover, the CLhep predicted at 1 μM in series [3] was 7.7 mL/min/kg. Besides, the Papp at 2 h, 10 μM in series [6] was found to be 10 ×10⁻⁶ cm/s.

The term Ki denotes a dissociation constant, usually derived from enzyme kinetics or from competition with a known ligand. A word on the IC50: it is the concentration needed to halve the response being measured. For orientation: bioavailability means dose-corrected exposure relative to a reference, in per cent. A low value points to little systemic uptake. For orientation: Papp means the rate of passage across a membrane or cell layer, normalised by area and donor concentration.
